Converted amounts (≈) assume the structure as drawn. Where two headings read alike, the source gives them in different places.
Tests used:
Thermodynamic solubility = type: physicochemical; details: for solubility thermodynamic: PBS, pH 7.4, Thermodynamic solubility, PBS pH 7.4, CLND, each entry a single run
DHODH = DHODH (Homo sapiens, UniProt Q02127); assay: DHODH inhibition assay; type: biochemical; details: for LipE: lipophilic ligand efficiency from DHODH pIC50 (M) and cLogP
[1] = pH 7.4; cited from earlier work
[2] = Pharmacokinetic study in female CD-1 mice; type: in vivo
[3] = clinical trial, cited from earlier work
HCT-116 = details: HCT-116, comparator brequinar
MIA PaCa-2 = details: MIA PaCa-2, comparator brequinar

Sequence of DHODH (Q02127 whole entry): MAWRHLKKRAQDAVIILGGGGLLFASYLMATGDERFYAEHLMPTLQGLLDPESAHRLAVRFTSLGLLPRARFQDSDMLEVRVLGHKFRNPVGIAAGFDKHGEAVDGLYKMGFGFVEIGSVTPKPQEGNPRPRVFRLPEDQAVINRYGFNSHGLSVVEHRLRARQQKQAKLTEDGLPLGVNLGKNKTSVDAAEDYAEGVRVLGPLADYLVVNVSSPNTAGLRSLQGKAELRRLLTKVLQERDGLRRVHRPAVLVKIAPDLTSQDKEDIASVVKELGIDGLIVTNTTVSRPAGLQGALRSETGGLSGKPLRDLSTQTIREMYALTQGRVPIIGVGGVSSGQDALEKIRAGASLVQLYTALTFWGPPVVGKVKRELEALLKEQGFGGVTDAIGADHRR

O=C(O)c1cc(-c2ccc(C3CCCCC3)cc2)nc2ccccc12 [compound 3, 2-(4-Cyclohexylphenyl)quinoline-4-carboxylic Acid]
solubility thermodynamic (Thermodynamic solubility): 14.5 µg/mL (≈ 43.8 µM)

O=C(O)c1cc(-c2ccc(-c3cccnc3F)cc2)nc2ccccc12 [compound 28, 2-(4-(2-Fluoropyridin-3-yl)phenyl)quinoline-4-carboxylic Acid]
fold less potent than 22 (DHODH) (DHODH; comparator 22): 9 fold
fold less potent than 26 (DHODH) (DHODH; comparator 26): 64 fold
LipE (DHODH): 1.45

Cc1c(-c2ccc(-c3ccccc3F)cc2)nc2ccc(F)cc2c1C(=O)O [Brequinar sodium]
water solubility [1]: < 100 µg/mL

Cc1ccc(-c2ccc(-c3nc4cnccc4c(C(=O)O)c3C)cc2)c(Cl)n1 [compound 50, 2-(4-(2-Chloro-6-methylpyridin-3-yl)phenyl)-3-methyl-1,7-naphthyridine-4-carboxylic Acid]
LipE (DHODH): 1.65

Cc1c(-c2ccc(-c3cccnc3Cl)cc2)nc2cnc(C(F)(F)F)cc2c1C(=O)O [compound 51, 2-(4-(2-Chloropyridin-3-yl)phenyl)-3-methyl-6-(trifluoromethyl)-1.7-naphthyridine-4-carboxylic Acid]
LipE (DHODH): 2.69

Cc1c(-c2ccc(-c3cccnc3Cl)cc2)nc2ccc(F)cc2c1C(=O)O [compound 41, 2-(4-(2-Chloropyridin-3-yl)phenyl)-6-fluoro-3-methylquinoline-4-carboxylic Acid]
half-life ([2]; female, CD-1, mouse, plasma, intravenous, oral): 2.73 to 2.78 h
CL-F ([2]; mice, PO 20 mg/kg): 9.25 mL/min/kg
Vz_F ([2]; mice, PO 20 mg/kg): 2.226 L/kg
solubility thermodynamic (Thermodynamic solubility): 393 µg/mL (≈ 1000 µM)

Cc1c(-c2ccc(-c3ccccc3)cc2)nc2cnccc2c1C(=O)O [compound 46, 2-([1,1′-Biphenyl]-4-yl)-3-methyl-1,7-naphthyridine-4-carboxylic Acid]
fold more soluble than brequinar (Thermodynamic solubility; PBS at pH 7.4): 2.5–3 ×
solubility thermodynamic (Thermodynamic solubility): 1050 µg/mL (≈ 3100 µM)
LipE (DHODH): 3.39

Cc1c(-c2ccc(-c3ccccc3F)cc2)nc2ccc(F)cc2c1C(=O)O [compound 1, brequinar]
solubility thermodynamic (Thermodynamic solubility): 407 µg/mL (≈ 1090 µM)
CL ([3]; IV 8 mg/m^2): 3.2 L/h/m^2
Cmax ([3]; IV 8 mg/m^2): 1800 ng/mL
Vss ([3]; IV 8 mg/m^2): 8.2 L/m^2
t1/2 ([3]; IV 8 mg/m^2): 2.9 h
CL ([3]; IV 16 mg/m^2): 4.9 L/h/m^2
Cmax ([3]; IV 16 mg/m^2): 2700 ng/mL
Vss ([3]; IV 16 mg/m^2): 11.6 L/m^2
t1/2 ([3]; IV 16 mg/m^2): 3.1 h
Vss ([3]; IV 36 mg/m^2): 7.48 L/m^2
LipE (DHODH): 2.20

Cc1c(-c2ccc(-c3ccccc3)cc2)nc2cnc(C(F)(F)F)cc2c1C(=O)O [compound 48, 2-([1,1′-Biphenyl]-4-yl)-3-methyl-6-(trifluoromethyl)-1,7-naphthyridine-4-carboxylic Acid]
LipE (DHODH): 2.63

Cc1c(-c2ccc(-c3ccccc3)cc2)nc2ncccc2c1C(=O)O [compound 45, 2-([1,1′-Biphenyl]-4-yl)-3-methyl-1,8-naphthyridine-4-carboxylic Acid]
LipE (DHODH): 1.75

Cc1c(-c2ccc(-c3ccccc3)cc2)nc2ccncc2c1C(=O)O [compound 47, 2-([1,1′-Biphenyl]-4-yl)-3-methyl-1,6-naphthyridine-4-carboxylic Acid]
LipE (DHODH): 1.39

Cc1c(-c2ccc(-c3cccnc3Cl)cc2)nc2cnccc2c1C(=O)O [compound 49, 2-(4-(2-Chloropyridin-3-yl)phenyl)-3-methyl-1,7-naphthyridine-4-carboxylic Acid]
LipE (DHODH): 3.46

Cc1c(-c2ccc(-c3ccccc3F)cc2)nc2cnc(C(F)(F)F)cc2c1C(=O)O [compound 52, 2-(2’-Fluoro-[1,1’-biphenyl]-4-yl)-3-methyl-6-(trifluoromethyl)-1.7-naphthyridine-4-carboxylic Acid]
fold more potent than brequinar in the MTT assay (HCT-116): at least 2 fold
fold more potent than brequinar in the MTT assay (MIA PaCa-2): at least 2 fold
LipE (DHODH): 2.74

Source: paper PMC8859982 (Journal of medicinal chemistry, 2018)
